Biological target: T1, VvCCD1 (Vitis vinifera, UniProt U3M7F6)
T1 construct: gene CCD1; 1715 bp coding region from Pinotage cDNA, NdeI/PstI in pTWIN1, expressed in carotenoid-accumulating E. coli
Assay: co-expression in carotenoid-accumulating E. coli, HS-SPME GC/MS of volatile apocarotenoid
Format: cell-based
Conditions: beta-carotene strain (pAC-BETA); product beta-ionone; Fe2+ and ascorbate added; room temperature, 16 h, dark

T1 sequence (U3M7F6 1-542): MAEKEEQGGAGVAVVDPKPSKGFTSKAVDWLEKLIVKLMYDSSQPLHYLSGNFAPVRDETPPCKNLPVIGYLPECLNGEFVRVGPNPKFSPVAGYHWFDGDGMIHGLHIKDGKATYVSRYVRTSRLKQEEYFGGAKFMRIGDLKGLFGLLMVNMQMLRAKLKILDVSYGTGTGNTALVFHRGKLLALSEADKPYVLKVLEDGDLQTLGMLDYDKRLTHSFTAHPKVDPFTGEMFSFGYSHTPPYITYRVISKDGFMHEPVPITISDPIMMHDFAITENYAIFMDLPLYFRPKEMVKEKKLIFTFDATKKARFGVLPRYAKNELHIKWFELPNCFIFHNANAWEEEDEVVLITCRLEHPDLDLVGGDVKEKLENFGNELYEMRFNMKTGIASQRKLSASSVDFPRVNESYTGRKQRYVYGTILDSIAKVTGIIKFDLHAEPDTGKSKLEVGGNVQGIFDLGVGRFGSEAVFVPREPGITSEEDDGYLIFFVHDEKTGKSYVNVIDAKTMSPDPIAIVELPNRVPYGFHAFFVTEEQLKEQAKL

`CC1=C(/C=C/C(C)=C/C=C/C(C)=C/C=C/C=C(C)/C=C/C=C(C)/C=C/C2=C(C)CCCC2(C)C)C(C)(C)CCC1` [β-carotene] was tested, and the “co-expression in carotenoid-accumulating E. coli, HS-SPME GC/MS of volatile apoc” value was “Only VvCCD1, however, catalysed β-carotene cleavage to form β-ionone”.

From publication PMC3854447, “Functional characterisation of three members of the Vitis vinifera L. carotenoid cleavage dioxygenase gene family” (BMC Plant Biology, 2013)
